The nature of data set [1]: Blood-brain barrier permeability test, oral, SD rats. In kind it is in vivo. As to conditions: rat, oral 10 mg/kg single dose; for concentration at 1 h / Kp at 1 h: time point 1 h; for concentration at 2 h / Kp at 2 h: time point 2 h; for concentration at 4 h / Kp at 4 h: time point 4 h. The procedure:
Test Example 6: Blood-Brain Barrier Permeability Test
Each test compound was administered orally at a single dose of 10 mg/kg to SD rats for pharmacokinetic study. Each group included 9 rats. The test compound was dissolved in 5% DMSO+10% solutol+85% saline, vortexed for 1-2 min, and ultrasonicated for 5-10 min to prepare into a colorless, transparent and clear administration solution. Animals were fasted overnight before administration. 1 h, 2 h, and 4 h after administration, three SD rats were selected from each group to take about 0.2-0.3 mL of blood through their orbit. The blood sample was placed on ice once collected, and centrifuged to separate the plasma within 15 min (centrifugation conditions: 8000 rpm, 1 min, room temperature). The collected plasma was stored at −20° C. before analysis. Immediately after blood collection, the cerebrospinal fluid and brain tissue were collected. The cerebrospinal fluid was draw out by dural puncture with a micro-sampler syringe under direct vision. Namely, about 100 μl of cerebrospinal fluid was collected with a 100 μl micro sample syringe from the rat that was anesthetized by chloral hydrate, with the head-fixed, the back hair-cut off, a transverse incision (2 cm) made at the line connecting the roots of the two ears, and the muscle layer of the neck and skull base bluntly scraped to expose the foramen magnum. The cerebrospinal fluid was stored at −20° C. before analysis. The rat then was sacrificed immediately, with its head cut off. The dissected brain tissue, with the surface capillaries peeled off, was weighed, added with 3 times the amount of cold saline, homogenized by a homogenizer for 1 min, and stored at −20° C. before analysis. 20 μL of plasma sample and brain homogenate sample was respectively added into 200 μL of working internal standard solution (the same volume of vehicle was added to the blank instead of internal standard), vortexed for 1 min, and centrifuged at 13500 rpm for 10 min. 100 μL of the supernatant was taken and analyzed by LC-MS/MS. 20 μL of the cerebrospinal fluid was added into 60 μL of working internal standard solution (the same volume of vehicle, instead of internal standard, was added to the blank), vortexed for 1 min, and centrifuged at 13500 rpm for 10 min. 50 μL of the supernatant was taken and analyzed by LC-MS/MS.

In data set [2] the test system is BT474 cell proliferation. Put plainly: In vitro cell proliferation inhibitory activity test (CTG), BT474. In kind it is cell-based. As to conditions: Homo sapiens, BT-474, BT474 cell proliferation. The procedure:
Test Example 4: In Vitro Cell Proliferation Inhibitory Activity Test
Cells were cultured in 1640 medium, added with 10% inactivated FBS and 1% double antibiotics, and cultured at 37° C. and 5% CO2.
(1) Cells were routinely cultured until the cell density was 80%-90%, and the cells were harvested when their number reached the requirement.
(2) Cells were resuspended with corresponding culture medium, counted, and prepared into cell suspension at appropriate density.
(3) The cell suspension was added to a 96-well plate, 100 μL per well.
(4) Cells were cultured overnight in a 37° C., 5% CO2 incubator.
(1) The compounds to be tested were diluted with DMSO to make a stock solution with a final concentration of 20 mM for later use.
(2) The stock solution was diluted 10 times from 20 mM to 2 mM with DMSO, and then diluted 3 times from 2 mM to 9 concentrations.
(3) The blank control wells were cells plus 0.5% DMSO, as high-reading control wells.
(4) Wells with no cells and only medium were used as low-reading control wells.
4: Cell treatment with compound
(1) 24 h after the cells were plated, the compounds acted alone, and 99 μL of growth medium was added to each well, followed by 1 μL of the compound prepared in step 3. The plate was shaken gently to mix uniformly, and then placed in a 37° C., 5% CO2 incubator.
(2) The cell plate was placed in an incubator for 72 h.
5: Detection by CTG method
(1) The cell plate to be tested was placed at room temperature for 30 min, and 100 μL of medium was discarded from each well.
(2) 100 μL of CTG reagent (CelltiterGlo kit) was added to each well, placed on a fast shaker for 2 min, and stood at room temperature in the dark for 30 min.
(3) The chemiluminescent signal value was read with the Envision instrument.
IC50 was calculated by using GraphPad Prism 8 software. The IC50 (half inhibitory concentration) of the compound was derived using the following nonlinear fitting formula, and the results are shown in the following table:
Y=Bottom+(Top−Bottom)/(1+10^((Log IC50−X)×HillSlope))
X: log value of compound concentration, Y: inhibition rate (% inhibition)
Inhibition rate (% inhibition)=(reading of high-reading control well-reading of compound well)/(reading of high-reading control well-reading of low-reading control well)×100

Data set [3] has as its target HER2 kinase (Homo sapiens, UniProt P04626). In words: HER2 kinase activity test (HTRF). Type of data set: biochemical. The procedure:
Test Example 5: HER2 Kinase Activity Test
1. Her2 Kinase test steps
2) 100 nl of the diluted compound working solution was transferred into each well of a reaction plate (784075, Greiner) by an Echo 550 liquid hander. The reaction plate was sealed with a sealing film and centrifuged at 1000 g for 1 min.
3) 1 ng/μL Her2 kinase solution was prepared with 1× kinase reaction buffer.
4) 5 μL of the kinase solution prepared above was added to each well of the reaction plate. The plate was sealed with a sealing film, centrifuged at 1000 g for 1 min, and placed at room temperature for 10 min.
5) A mixture of 2× kinase substrate and ATP was prepared by using 1× kinase reaction buffer, and the 2× Her2 kinase substrate was 2 μM TK-substrate-biotin and 4 μM ATP
6) 5 μL of the mixture of 2× TK-substrate-biotin and ATP was added to the reaction plate, centrifuged at 1000 g for 30 seconds to start the reaction.
7) Her2 kinase test was performed at room temperature for 50 min of reaction.
9) 10 μL of the mixture of Sa-XL 665 and TK-antibody-Cryptate was added to each well, centrifuged at 1000 g for 30 seconds, and reacted at room temperature for 1 h.
10) The fluorescence signals at 615 nm (Cryptate) and 665 nm (XL665) were read by Envision 2104.
1) The percentage inhibition was calculated as follows: […]
Ratiopositive control: average value of Ratio 665/615 nm of all positive control wells in the plate.
Rationegative control: average value of Ratio 665/615 nm of all negative control wells in the plate.
2) Calculation of IC50 and fitting of dose-effect curve of compound:
The IC50 of the compound was derived using the following nonlinear fitting formula with GraphPad 6.0.
Y=Bottom+(Top−Bottom)/(1+10^((Log IC50−X)×HillSlope)).
X: log value of compound concentration; Y: percentage inhibition of compound

[4] abbreviates: brain, read-out: Drug concentration in brain tissue.
The mark [5] stands for this setting: brain/plasma, read-out: Brain tissue/plasma.
The mark [6] stands for this setting: cerebrospinal fluid, read-out: Drug concentration in cerebrospinal fluid.
Where [7] appears, read: cerebrospinal fluid/plasma, read-out: Cerebrospinal fluid/plasma.
Where [8] appears, read: plasma, read-out: Plasma drug concentration.

Where two headings read alike, the source gives them in different places.

HER2 kinase, sequence (P04626 23-1255): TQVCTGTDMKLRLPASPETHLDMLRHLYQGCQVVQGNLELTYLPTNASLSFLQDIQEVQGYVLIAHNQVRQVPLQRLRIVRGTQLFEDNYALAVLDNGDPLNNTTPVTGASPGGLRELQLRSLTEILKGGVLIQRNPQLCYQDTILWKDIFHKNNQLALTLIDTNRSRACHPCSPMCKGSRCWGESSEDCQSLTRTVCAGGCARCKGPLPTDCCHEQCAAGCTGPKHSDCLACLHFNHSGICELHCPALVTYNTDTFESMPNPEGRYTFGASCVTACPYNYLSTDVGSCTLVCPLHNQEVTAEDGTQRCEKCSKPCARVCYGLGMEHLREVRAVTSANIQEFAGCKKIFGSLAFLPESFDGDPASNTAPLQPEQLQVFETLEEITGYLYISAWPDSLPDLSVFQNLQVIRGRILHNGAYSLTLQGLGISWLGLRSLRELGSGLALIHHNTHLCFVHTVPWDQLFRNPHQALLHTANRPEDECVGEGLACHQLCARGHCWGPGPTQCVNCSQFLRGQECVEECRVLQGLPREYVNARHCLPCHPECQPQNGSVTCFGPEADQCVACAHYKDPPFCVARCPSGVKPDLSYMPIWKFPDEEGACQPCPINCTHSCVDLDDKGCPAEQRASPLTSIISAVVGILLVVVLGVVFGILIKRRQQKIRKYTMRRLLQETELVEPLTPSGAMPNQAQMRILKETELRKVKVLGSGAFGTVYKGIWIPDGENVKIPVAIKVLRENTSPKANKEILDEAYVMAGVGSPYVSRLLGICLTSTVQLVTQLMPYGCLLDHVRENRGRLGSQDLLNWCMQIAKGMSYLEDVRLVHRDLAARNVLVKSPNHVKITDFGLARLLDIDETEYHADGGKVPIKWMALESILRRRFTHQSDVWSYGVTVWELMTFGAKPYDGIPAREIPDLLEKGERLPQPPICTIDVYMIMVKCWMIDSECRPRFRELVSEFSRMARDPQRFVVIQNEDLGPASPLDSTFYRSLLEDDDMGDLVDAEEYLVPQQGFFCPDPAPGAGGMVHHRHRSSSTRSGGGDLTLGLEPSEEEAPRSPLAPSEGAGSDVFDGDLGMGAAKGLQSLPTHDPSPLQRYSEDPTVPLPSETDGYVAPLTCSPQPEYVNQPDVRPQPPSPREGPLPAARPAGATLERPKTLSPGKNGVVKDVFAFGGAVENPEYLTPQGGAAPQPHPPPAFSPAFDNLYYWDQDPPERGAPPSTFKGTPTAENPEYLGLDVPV

With `Nc1nccn2c(C3CCC(CO)OC3)nc(-c3ccc(C(F)(F)c4ccccc4)cc3)c12` (single isomer, unassigned) [Example 111-P1], in data set [1] (setting [4]), the concentration at 1 h was found to be 1250 ng/g, the concentration at 2 h is 1070 ng/g and the concentration at 4 h was found to be 787 ng/g. Moreover, in data set [1] (setting [5]), the Kp at 1 h turned out to be 0.62, the Kp at 2 h amounted to 0.67 and the Kp at 4 h is 0.59. Also, in data set [1] (setting [6]), the concentration at 1 h was found to be 66.2 ng/mL, the concentration at 2 h was 52.3 ng/mL and the concentration at 4 h is 41.9 ng/mL. For the same compound, in data set [1] (setting [7]), the Kp at 1 h stood at 0.033, the Kp at 2 h turned out to be 0.033 and the Kp at 4 h stood at 0.031. Moreover, in data set [1] (setting [8]), the concentration at 1 h came to 2010 ng/mL, the concentration at 2 h was found to be 1580 ng/mL and the concentration at 4 h amounted to 1340 ng/mL. The 50% inhibitory concentration (IC50) in data set [2] was 1550 nM.

Turning to `Nc1nccn2c(C34CCC(CO)(CC3)OC4)nc(-c3ccc(C(F)(F)c4ccccc4)cc3)c12` [Example 125], in data set [1] (setting [4]), the concentration at 1 h was 1340 ng/g, the concentration at 2 h was determined as 1170 ng/g and the concentration at 4 h is 1060 ng/g. In addition, in data set [1] (setting [5]), the Kp at 1 h is 0.91, the Kp at 2 h is 1.03 and the Kp at 4 h turned out to be 0.84. In data set [1] (setting [6]), the concentration at 1 h stood at 34.1 ng/mL, the concentration at 2 h amounted to 30.4 ng/mL and the concentration at 4 h stood at 29.6 ng/mL. In data set [1] (setting [7]), the Kp at 1 h was 0.023, the Kp at 2 h amounted to 0.027 and the Kp at 4 h was 0.024. In addition, in data set [1] (setting [8]), the concentration at 1 h came out at 1470 ng/mL, the concentration at 2 h is 1130 ng/mL and the concentration at 4 h came out at 1260 ng/mL. The same compound showed an IC50 in data set [2] of 340 nM.

`Nc1nccn2c(C34CCC(CO)(CC3)OC4)nc(-c3ccc(C(F)(F)c4ccccc4F)cc3)c12` [Example 145]: the IC50 in data set [3] came to 1.69 nM; in data set [2], 40.9 nM. For the same compound, the concentration at 1 h in data set [1] (setting [4]) stood at 643 ng/g; in data set [1] (setting [6]), 59.7 ng/mL; in data set [1] (setting [8]), 1650 ng/mL. The concentration at 4 h was 910 ng/g in data set [1] (setting [4]), 74.3 ng/mL in data set [1] (setting [6]) and 1710 ng/mL in data set [1] (setting [8]). The Kp at 1 h was 0.39 in data set [1] (setting [5]) and 0.036 in data set [1] (setting [7]). For the same compound, the Kp at 4 h in data set [1] (setting [5]) came to 0.53; in data set [1] (setting [7]), 0.044.

Regarding `Nc1nccn2c(C34CCC(CO)(CC3)OC4)nc(-c3ccc(C(F)(F)c4cccc(Cl)c4F)cc3)c12` [Example 152], half-maximal inhibition in data set [3] (IC50) was put at 4.19 nM. Further, in data set [1] (setting [4]), the concentration at 1 h was found to be 288 ng/g, the concentration at 2 h amounted to 378 ng/g and the concentration at 4 h came out at 232 ng/g. Moreover, in data set [1] (setting [5]), the Kp at 1 h was found to be 0.27, the Kp at 2 h was found to be 0.39 and the Kp at 4 h was 0.32. Besides, in data set [1] (setting [6]), the concentration at 1 h came to 187 ng/mL, the concentration at 2 h turned out to be 227 ng/mL and the concentration at 4 h was determined as 181 ng/mL. Besides, in data set [1] (setting [7]), the Kp at 1 h came out at 0.18, the Kp at 2 h worked out at 0.24 and the Kp at 4 h turned out to be 0.25. Also, in data set [1] (setting [8]), the concentration at 1 h was 1060 ng/mL, the concentration at 2 h is 961 ng/mL and the concentration at 4 h amounted to 715 ng/mL. Further, the IC50 in data set [2] was determined as 65.5 nM.

In the case of `Nc1nccn2c(C34CCC(CO)(CC3)OC4)nc(-c3ccc(C(F)(F)c4ccccc4Cl)cc3)c12` [Example 155], the IC50 in data set [3] is 9.44 nM; in data set [2] it was 46.4 nM. Further, the concentration at 1 h in data set [1] (setting [4]) stood at 1520 ng/g; in data set [1] (setting [6]), 292 ng/mL; in data set [1] (setting [8]), 1250 ng/mL. The figures for the concentration at 2 h in data set [1] (setting [4]), in data set [1] (setting [6]) and in data set [1] (setting [8]) were 1860 ng/g, 374 ng/mL and 1430 ng/mL, respectively. Further, the concentration at 4 h in data set [1] (setting [4]) was 1260 ng/g; in data set [1] (setting [6]), 220 ng/mL; in data set [1] (setting [8]), 1060 ng/mL. The Kp at 1 h stood at 1.21 in data set [1] (setting [5]) and 0.23 in data set [1] (setting [7]). Besides, the Kp at 2 h in data set [1] (setting [5]) was found to be 1.3; in data set [1] (setting [7]), 0.26. In addition, the Kp at 4 h came to 1.19 in data set [1] (setting [5]) and 0.21 in data set [1] (setting [7]).

Compound `Cc1cc(Nc2ncnc3ccc(NC4=NC(C)(C)CO4)cc23)ccc1Oc1ccn2ncnc2c1` [Tucatinib, reference compound] yielded an IC50 in data set [3] of 3 nM. Also, in data set [1] (setting [4]), the concentration at 1 h worked out at 26.5 ng/g, the concentration at 2 h came to 29.5 ng/g and the concentration at 4 h came out at 24.5 ng/g. Moreover, in data set [1] (setting [5]), the Kp at 1 h was determined as 0.013, the Kp at 2 h was found to be 0.015 and the Kp at 4 h came to 0.013. Moreover, in data set [1] (setting [6]), the concentration at 1 h amounted to 19.2 ng/mL, the concentration at 2 h amounted to 10.4 ng/mL and the concentration at 4 h turned out to be 14.9 ng/mL. Moreover, in data set [1] (setting [7]), the Kp at 1 h amounted to 0.009, the Kp at 2 h was 0.005 and the Kp at 4 h was 0.008. In addition, in data set [1] (setting [8]), the concentration at 1 h amounted to 2030 ng/mL, the concentration at 2 h turned out to be 1940 ng/mL and the concentration at 4 h worked out at 1900 ng/mL. 30.2 nM corresponded to half-maximal inhibition in data set [2] (IC50).
